These results are taken from publication PMC2812670 (Experimental neurology, 2009).

In this test the target is T1, MAO-A (Mus musculus, UniProt Q64133).
T1 sequence (Q64133 1-526): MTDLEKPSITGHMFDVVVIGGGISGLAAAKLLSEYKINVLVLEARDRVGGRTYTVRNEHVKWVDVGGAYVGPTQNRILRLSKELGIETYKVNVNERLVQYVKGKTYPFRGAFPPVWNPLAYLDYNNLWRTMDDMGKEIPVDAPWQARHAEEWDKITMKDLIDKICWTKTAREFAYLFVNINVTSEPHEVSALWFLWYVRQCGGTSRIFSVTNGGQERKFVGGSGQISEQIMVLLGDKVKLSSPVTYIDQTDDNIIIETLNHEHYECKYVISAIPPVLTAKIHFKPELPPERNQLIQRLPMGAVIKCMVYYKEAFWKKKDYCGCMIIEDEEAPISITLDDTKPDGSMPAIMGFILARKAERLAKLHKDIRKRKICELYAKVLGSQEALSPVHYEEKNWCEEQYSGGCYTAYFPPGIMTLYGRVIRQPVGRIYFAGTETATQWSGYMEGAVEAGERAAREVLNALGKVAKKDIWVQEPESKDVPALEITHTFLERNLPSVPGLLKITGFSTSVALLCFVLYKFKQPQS
The test is described as follows: Amplex Red MAO-A activity assay. It is filed as biochemical.

Consider `C#CCN(C)CCCOc1ccc(Cl)cc1Cl` [clorgyline], for which the “Amplex Red MAO-A activity assay (tyramine substrate) in mouse brain homogenates,” value was determined as 1 µM.
